Patent publication US6559280B2, “Controlling protein levels in eucaryotic organisms” (Proteinix, Inc., priority 1999, dated 2003)
Non-standard residues stand in square brackets, D forms with d. No end group written: not given here. Ahx = NCCCCCC(=O)O

Columns and labels:
[1] = system: [125I]-lysozyme degradation in the reticulocyte lysate; test: inhibition of [125I]-lysozyme degradation in reticulocyte lysate by ubiquitination recognition elements; format: biochemical, rabbit; conditions: for lysozyme degradation, result at the 2 hour time point: no treatment 12,475 cpm
Description: Proteins were labeled by Lofstrand Laboratories Ltd. (Gaithersburg, Md.) Labeled to […] by oxidation of Na^125I using an iodobead chloramine-T procedure. The ubiquitin-dependent protein degradation assay was preformed by the addition of 70 μL of rabbit reticulocyte lysate and 5 uL of 0.06 μCi/μL ^25I-labeled protein to […] of reaction buffer containing 40 mM Tris pH 7.6, 2 mM DTT, 5 mM MgCl2, 0.5 mM ATP, 35 μg creatine phosphokinase (Sigma) and 10 mM phosphocreatine. The reaction were run at 37 C. in a heating block, and at time points 30 μL of the reaction was transferred to 50 μl of cold 100 mg/mL BSA and protein was precipitated by the addition of 420 μL of 23% TCA followed by 15 min on ice. The precipitated samples were microfuged for 2 min at 5000 rpm and 300 μL of supernatant was then counted for TCA-soluble ^125I on a gamma counter (Hidex).
In order to determine if a given molecule or molecular element is potentially valuable as a ubiquitination recognition element the assay described above is run with [^125I]-lysozyme or other labeled protein substrates in the presence of potential ubiquitination recognition elements.
The results at the 2 hour time point were 12,475 cpm for no treatment, 6,486 cpm for the 2 mM Arg-εAhx-Cys treatment and 3,592 cpm for the 5 mM Phe-εAhx-Cys treatment.

[2] = system: E2 ubiquitination reaction; conditions: patent application GB 2,320,570; cited from earlier work

Row | Compound | effect on lysozyme degradation in the reticulocyte lysate [1] | lysozyme degradation, result at the 2 hour time point ([1]; 2 mM treatment) | inhibition of an E2 ubiquitination reaction [2] | lysozyme degradation, result at the 2 hour time point ([1]; 5 mM treatment)
1 | Arg-εAhx-Cys (Arg-[Ahx]-Cys) [ubiquitination recognition element, Type I recognition with caproic acid linker and C-terminal Cys] | inhibition of the lysozyme degradation | 6,486 cpm | – | –
2 | O=S(=O)(O)c1cc(Nc2nc(Cl)nc(Nc3ccc(Cl)c(Nc4nc(Cl)nc(Nc5cc(S(=O)(=O)O)cc6cc(S(=O)(=O)O)c(N=Nc7ccc8ccccc8c7S(=O)(=O)O)c(O)c56)n4)c3)n2)c2c(O)c(N=Nc3ccc4ccccc4c3S(=O)(=O)O)c(S(=O)(=O)O)cc2c1 [compound Z, 1-chloro-2,4-bis{4-[2-chloro-6-(5-(2,7-disulfo-4-hydroxy-3-(2-(1-sulfonaphthyl)azo)naphthyl)amino)-1,3,5-triazinyl]amino}benzene] | – | – | inhibited an E2 ubiquitination reaction | –
3 | Phe-εAhx-Cys (Phe-[Ahx]-Cys) [ubiquitination recognition element, Type II recognition with caproic acid linker and C-terminal Cys] | inhibition of the lysozyme degradation | – | – | 3,592 cpm
